In publication PMC8801796 (Reproductive Toxicology (Elmsford, N.y.), 2022):
Read-outs that look alike come from different tables or passages of the source.

Columns and labels:
[1] = Fertility and early embryonic development study in rats; type: in vivo, rat; settings: both, Wistar Han, rat, in vivo, oral
[2] = tested on: Wistar Han (Crl:WI[Han]) rats; assay: as above; type: in vivo, rat; settings: for Corpora lutea / Implantation sites / Live embryos / Resorptions: GD 14 uterine examination; for Number of pregnant females: of 20
[3] = Maternal toxicokinetics, rat EFD study; type: in vivo; settings: for Cmax: female, Wistar Han, in vivo, po; for Cmax / Exposure Margin AUC24 / Exposure Margin Cmax: rat; for Mean Systemic Exposure AUC24: maternal rat; for Exposure Margin AUC24: relative to predicted human AUC24 68.6 μg h/mL; for Exposure Margin Cmax: relative to predicted human Cmax 4.14 μg/mL
[4] = Maternal toxicokinetics, rabbit EFD study; type: in vivo; settings: for Cmax: female, New Zealand White, in vivo, po; for Cmax / Exposure Margin AUC24 / Exposure Margin Cmax: rabbit; for Mean Systemic Exposure AUC24: maternal rabbit; for Exposure Margin AUC24: relative to predicted human AUC24 68.6 μg h/mL; for Exposure Margin Cmax: relative to predicted human Cmax 4.14 μg/mL
[5] = tested on: New Zealand White [Hra:(NZW)SPF] rabbits
rats = settings: doses up to 1000 mg/kg/day; cited from earlier work
monkeys = settings: doses up to 600 mg/kg/day; cited from earlier work
[6] = cited from earlier work
in vivo = settings: female, New Zealand White, rabbit, 1000 mg/kg/day
[7] = Rat embryo-fetal development; settings: female, Wistar Han, rat, in vivo, oral
[8] = tested on: Wistar Han (Crl:WI[Han]) rats; assay: Rat embryo-fetal development

## CC(C)(C)[C@H](NC(=O)C(F)(F)F)C(=O)N1C[C@H]2[C@@H]([C@H]1C(=O)N[C@H](C#N)C[C@@H]1CCNC1=O)C2(C)C [NMV, nirmatrelvir]
[1]
  NOAEL: 1000 mg/kg/day
[2]; 60 mg/kg/day
  Female Food Consumption, Gestation Day 0−14: 19.2 ± 2.1 g/day
  Female Food Consumption, Premating Day 1−14: 15.3 ± 1.2 g/day
  Female Terminal Body Weight: 277.0 ± 24.1 g
  Male Food Consumption, Mating Day 15−19: 19.3 ± 2.8 g/day
  Male Food Consumption, Premating Day 1−14: 22.0 ± 1.1 g/day
  Male Terminal Body Weight: 409.9 ± 22.7 g
  Mean no. of estrous cycles: 2.7 ± 0.5
  Postimplantation loss: 5.3 ± 5.7%
  Precoital interval: 3.6 ± 3.5 days
  Preimplantation loss: 9.7 ± 8.1%
  Corpora lutea: 13.8 ± 1.3
  Implantation sites: 12.5 ± 1.4
  Live embryos: 11.8 ± 1.4
  Resorptions: 0.7 ± 0.7
  Number of pregnant females: 19
[2]; 200 mg/kg/day
  Female Food Consumption, Gestation Day 0−14: 19.0 ± 2.2 g/day
  Female Food Consumption, Premating Day 1−14: 14.8 ± 0.8 g/day
  Female Terminal Body Weight: 272.0 ± 13.3 g
  Male Food Consumption, Mating Day 15−19: 18.0 ± 3.1 g/day
  Male Food Consumption, Premating Day 1−14: 23.0 ± 1.2 g/day
  Male Terminal Body Weight: 411.6 ± 22.2 g
  Mean no. of estrous cycles: 2.7 ± 0.5
  Postimplantation loss: 9.5 ± 12.8%
  Precoital interval: 3.0 ± 2.2 days
  Preimplantation loss: 11.0 ± 18.4%
  Corpora lutea: 14.1 ± 1.7
  Implantation sites: 12.6 ± 3.0
  Live embryos: 11.5 ± 3.2
  Resorptions: 1.1 ± 1.6
  Number of pregnant females: 18
[2]; 1000 mg/kg/day
  Female Food Consumption, Gestation Day 0−14: 19.0 ± 1.6 g/day
  Female Food Consumption, Premating Day 1−14: 14.7 ± 1.0 g/day
  Female Terminal Body Weight: 277.8 ± 14.1 g
  Male Food Consumption, Mating Day 15−19: 18.3 ± 3.2 g/day
  Male Terminal Body Weight: 408.9 ± 19.7 g
  Mean no. of estrous cycles: 2.6 ± 0.5
  Postimplantation loss: 10.6 ± 11.9%
  Precoital interval: 3.2 ± 2.9 days
  Preimplantation loss: 16.9 ± 22.8%
  Corpora lutea: 12.7 ± 1.6
  Implantation sites: 10.5 ± 3.1
  Live embryos: 9.6 ± 3.2
  Resorptions: 1.0 ± 0.8
  Number of pregnant females: 20
[2]; 1000 mg/kg/day, p ≤ 0.05
  Male Food Consumption, Premating Day 1−14: 20.9 ± 0.9 g/day
[2]; up to 1000 mg/kg/day
  Effects on male or female fertility: no NMV-related effects on male or female fertility
  Systemic toxicity in males and females: no evidence of systemic toxicity
[3]; 100 mg/kg/day
  Cmax: 29000 ± 11000 ng/mL
[3]; 300 mg/kg/day
  Cmax: 43200 ± 14400 ng/mL
[3]; 1000 mg/kg/day
  Cmax: 65400 ± 18700 ng/mL
[3]; GD 17, 100 mg/kg/day
  Mean Systemic Exposure AUC24: 75.5 ± 12.4 μgh^•/mL
  Exposure Margin AUC24: 1.1x
  Exposure Margin Cmax: 7.0x
[3]; GD 17, 300 mg/kg/day
  Mean Systemic Exposure AUC24: 346 ± 92.0 μgh^•/mL
  Exposure Margin AUC24: 5.0x
  Exposure Margin Cmax: 10x
[3]; GD 17, 1000 mg/kg/day
  Mean Systemic Exposure AUC24: 535 ± 330 μgh^•/mL
  Exposure Margin AUC24: 7.8x
  Exposure Margin Cmax: 16x
[4]; 100 mg/kg/day
  Cmax: 17000 ± 6100 ng/mL
[4]; 300 mg/kg/day
  Cmax: 42900 ± 11100 ng/mL
[4]; 1000 mg/kg/day
  Cmax: 99600 ± 46500 ng/mL
[4]; GD 19, 100 mg/kg/day
  Mean Systemic Exposure AUC24: 98.7 ± 27.4 μgh^•/mL
  Exposure Margin AUC24: 1.4x
  Exposure Margin Cmax: 4.1x
[4]; GD 19, 300 mg/kg/day
  Mean Systemic Exposure AUC24: 195 ± 56.8 μgh^•/mL
  Exposure Margin AUC24: 2.8x
  Exposure Margin Cmax: 10x
[4]; GD 19, 1000 mg/kg/day
  Mean Systemic Exposure AUC24: 689 ± 206 μgh^•/mL
  Exposure Margin AUC24: 10x
  Exposure Margin Cmax: 24x
[5]; 100 mg/kg
  Corpora lutea: 9.7 ± 1.5
  Fetal weight (g)/Litter: 40.2 ± 3.0 g
  Implantation sites: 8.2 ± 1.7
  Maternal Body Weight (GD 29): 3.6 ± 0.2 kg
  Maternal Body Weight Gain (GD 7−29): 0.5 ± 0.1 kg
  Maternal Food Consumption (GD 7−29): 2983.9 ± 289.5 g
  Post-implantation loss: 3.3 ± 7.7%
  Pre-implantation loss: 14.4 ± 17.9%
[5]; 300 mg/kg
  Corpora lutea: 9.4 ± 2.1
  Fetal weight (g)/Litter: 40.3 ± 4.5 g
  Implantation sites: 8.6 ± 2.3
  Maternal Body Weight (GD 29): 3.6 ± 0.2 kg
  Maternal Body Weight Gain (GD 7−29): 0.4 ± 0.1 kg
  Maternal Food Consumption (GD 7−29): 2908.9 ± 500.1 g
  Post-implantation loss: 5.4 ± 7.4%
  Pre-implantation loss: 9.5 ± 10.2%
[5]; 1000 mg/kg
  Corpora lutea: 9.5 ± 1.7
  Implantation sites: 8.8 ± 1.6
  Maternal Body Weight (GD 29): 3.6 ± 0.2 kg
  Maternal Body Weight Gain (GD 7−29): 0.4 ± 0.1 kg
  Maternal Food Consumption (GD 7−29): 2703.0 ± 514.2 g
  Post-implantation loss: 3.2 ± 4.9%
  Pre-implantation loss: 6.4 ± 11.8%
[5]; 1000 mg/kg, p ≤ 0.01
  Fetal weight (g)/Litter: 37.7 ± 4.4 g
[5]; rabbit, 1000 mg/kg/day
  Mean maternal body weight gains and food consumption versus control: slightly lower than control
[5]; up to 1000 mg/kg/day
  Effects on embryo-fetal viability: no NMV-related effects on embryo-fetal viability
  Effects on external, visceral, or skeletal morphological development: no NMV-related effects on external, visceral, or skeletal morphological development
rats
  Adverse findings in 2-week general toxicology study: lack of adverse findings
monkeys
  Adverse findings in 2-week general toxicology study: lack of adverse findings
[6]
  Genetic toxicity: lack of genetic toxicity
In vivo
  NOAEL: 300 mg/kg/day
[7]
  NOAEL: 1000 mg/kg/day
[8]; 100 mg/kg
  Corpora lutea: 11.4 ± 1.1
  Fetal weight (g)/Litter: 5.3 ± 0.3 g
  Implantation sites: 9.9 ± 1.5
  Maternal Food Consumption (GD 6−21): 313.4 ± 32.0 g/day
  Post-implantation loss: 6.5 ± 15.4%
  Pre-implantation loss: 12.8 ± 11.1%
[8]; 300 mg/kg
  Corpora lutea: 11.5 ± 1.5
  Fetal weight (g)/Litter: 5.5 ± 0.3 g
  Implantation sites: 9.3 ± 2.4
  Maternal Food Consumption (GD 6−21): 322.3 ± 20.8 g/day
  Post-implantation loss: 6.8 ± 14.9%
  Pre-implantation loss: 18.7 ± 19.9%
[8]; 1000 mg/kg
  Corpora lutea: 11.5 ± 1.5
  Fetal weight (g)/Litter: 5.4 ± 0.3 g
  Implantation sites: 9.7 ± 2.6
  Maternal Food Consumption (GD 6−21): 309.5 ± 43.1 g/day
  Post-implantation loss: 9.7 ± 14.1%
  Pre-implantation loss: 15.3 ± 21.0%
[8]; all dose groups
  Effects on embryo-fetal viability: no NMV-related effects on embryo-fetal viability
[8]; any dose up to 1000 mg/kg/day
  Maternal toxicity: no NMV-related maternal toxicity
[8]; up to 1000 mg/kg/day
  Effects on fetal external, visceral, or skeletal morphological development: no effects on fetal external, visceral, or skeletal morphological development
